Paper PMC9811213, “Glutamine deamidation does not increase the immunogenicity of C-peptide in people with type 1 diabetes” (Journal of Translational Autoimmunity, 2022)

Legend:
[1] = test system: CD4+ T cells in PBMC from people with recent onset T1D; test: CFSE-based proliferation assay, PBMC of people with T1D; format: cell-based, human; settings: peptide 10 μM; for Cell division index (CDI): CFSE-labelled PBMC
Description: (§1) Blood was obtained by venepuncture. Peripheral blood mononuclear cells (PBMC) were isolated over Ficoll-paque (GE Healthcare) and washed twice in phosphate buffered saline (PBS) as described. The CFSE (5,6-carboxyfluorescein diacetate succinimidyl ester) proliferation assays were performed as described previously. CFSE-labelled PBMC were cultured with either: no antigen, full-length C-peptide (^PI33-63), or ^PI33-63 Q38E (referred to as Q6E), ^PI33-63 Q41E (referred to as Q9E), ^PI33-63 Q54E, (referred to as Q22E) ^PI33-63 Q63E (referred to as Q31E), or ^PI33-63 with all glutamines substituted for glutamic acid, (referred to as QallE). See Supplementary Table 5 for a detailed description of the peptides. Each peptide was used at a final concentration of 10 μM. Positive controls were tetanus toxoid (TT 10LfU/ml, Statens Serum Institut) and/or anti-CD3 (OKT3 10 ng/ml). The results are presented as a cell division index (CDI), the ratio of the number of CD4^+ T cells that have proliferated in the presence of antigen to the number of CD4^+ T cells that have proliferated in the absence of antigen.
(§2) Our analysis of CD4^+ Jurkat lines expressing TCRs derived from primary CD4^+ T cells used TCRs derived from CD4^+ T cells that were selected for their specificity for WT C-peptide. […] This may be due to Q to E substitutions being poorly tolerated by the TCRs that were selected based on their recognition of WT C-peptide. To address this, we measured polyclonal CD4^+ T-cell responses in PBMC from people with recent onset type 1 diabetes. (see Supplementary Tables 5 and 6 for details of each subject). […] Next, in a separate cohort we investigated CD4^+ T-cell responses to the five C-peptide variants with individual Q to E substitutions in PBMC of people with recent onset type 1 diabetes (Fig. 3B). We found, as expected, that a majority of PBMC samples responded to WT C-peptide, but responses to Q to E substituted C-peptide variants were not stronger, in fact in most cases they were weaker, than responses to WT C-peptide. (See Supplementary Tables 7–9 for results from individual subjects). Finally, we asked if people without T1D, but who carried the T1D-associated HLA alleles, HLA-DQ2, or HLA-DQ8 had stronger responses to Q to E substituted C-peptide variants (Fig. 3C). Here few subjects had response to WT C-peptide and only a minority had greater responses to Q to E substituted variants of C-peptide, compared to WT C-peptide.
(§3) Fig. 3 PBMC responses to WT and deamidated C-peptide variants. (A) Proliferation in responses, measured as a cell division index (CDI) to WT or QallE C-peptide were compared in 8 PBMC from 8 people with recent onset T1D. Responses from the same individual are linked. […] (B) PBMC proliferation responses to WT and C-peptide variants with individual Q to E substitution and QallE from people with recent onset T1D (B) and HLA matched control subjects who don't have T1D (C). Only difference which reached statistical significance are marked (* = P < 0.05). For responses in subjects without T1D, none of the differences between groups reached statistical significance, p > 0.05, by Wilcoxon matched pairs signed rank test of Log 10 transformed CDI data. Each point is a different individual, bars show the mean and the standard deviation for each group.

[2] = test system: CD4+ T cells in PBMC from subjects without T1D; test: CFSE-based proliferation assay, PBMC of subjects without T1D; format: cell-based, human; settings: CFSE-labelled PBMC, peptide 10 μM, mean CDI
Description: as §1, §2, §3

Row | Sequence | Cell division index (CDI) ([1]; T1D donor 9, mean CDI) | Cell division index (CDI) ([1]; T1D donor 10, mean CDI) | Cell division index (CDI) ([1]; T1D donor 11, mean CDI) | Cell division index (CDI) ([1]; T1D donor 12, mean CDI) | Cell division index (CDI) ([1]; T1D donor 13, mean CDI) | Cell division index (CDI) ([1]; T1D donor 14, mean CDI) | Cell division index (CDI) ([1]; T1D donor 15, mean CDI) | Cell division index (CDI) ([1]; T1D donor 16, mean CDI) | Cell division index (CDI) ([1]; T1D donor 17, mean CDI) | Cell division index (CDI) ([1]; T1D donor 18, mean CDI) | Cell division index (CDI) ([2]; donor 1 without T1D) | Cell division index (CDI) ([2]; donor 2 without T1D) | Cell division index (CDI) ([2]; donor 3 without T1D) | Cell division index (CDI) ([2]; donor 4 without T1D) | Cell division index (CDI) ([2]; donor 5 without T1D) | Cell division index (CDI) ([2]; donor 6 without T1D) | further results
1 | EAEDLQVGQVELGGGPGAGSLQPLALEGSLE [Q31E, C-peptide variant with glutamine 31 substituted for glutamic acid] | 0.3 | 2.0 | 0.9 | 3.7 | 11.8 | 3.6 | 6.4 | 1.5 | 7.6 | 1.0 | 1.3 | 1.7 | 3.6 | 0.8 | 22.3 | 1.9 | –
2 | EAEDLEVGEVELGGGPGAGSLEPLALEGSLE [QallE, C-peptide with all four glutamines substituted for glutamic acid] | 0.3 | 1.0 | 1.0 | 1.4 | 24.7 | 15.1 | 21.3 | 0.7 | 2.0 | 1.5 | 15.8 | 1.2 | 0.9 | 1.3 | 1.7 | 7.8 | CD4+ T-cell proliferation response compared with WT C-peptide ([1]; PBMC from 8 people with recent onset T1D, Fig. 3A, difference not statistically significant): slightly weaker response; Cell division index (CDI) ([1]; T1D donor 1, mean CDI = proliferated CD4+ T cells with antigen / without antigen): 3.5; Cell division index (CDI) ([1]; T1D donor 2, mean CDI): 8.6; Cell division index (CDI) ([1]; T1D donor 3, mean CDI): 2.1; Cell division index (CDI) ([1]; T1D donor 4, mean CDI): 2.9; Cell division index (CDI) ([1]; T1D donor 5, mean CDI): 4.8; Cell division index (CDI) ([1]; T1D donor 6, mean CDI): 1.5; Cell division index (CDI) ([1]; T1D donor 7, mean CDI): 2.5; Cell division index (CDI) ([1]; T1D donor 8, mean CDI): 15.9
3 | EAEDLQVGEVELGGGPGAGSLQPLALEGSLQ [Q9E, C-peptide variant with glutamine 9 substituted for glutamic acid] | 3.9 | 1.3 | 0.8 | 8.0 | 38.4 | 11.1 | 5.1 | 3.7 | 11.3 | 3.4 | 1.0 | 1.4 | 1.2 | 0.8 | 6.1 | 3.4 | –
